Settings: human, in vivo

- AUC_0-6 h: 1423.0 ± 919.5 ng·h/mL
SMILES: N[C@@H](Cc1ccc(O)c(O)c1)C(=O)O [levodopa]

— US20260130881A1, “SUSTAINED RELEASE DEVICE CONTENTS FOR TREATMENT OF PARKINSON'S DISEASE AND OTHER DISORDERS” (priority 2024, published 2026)
